This is an account of results in patent publication US20070015770A1 (priority 2003, published 2007).

Where two headings read alike, the source gives them in different places.

This assay concerns Pyricularia oryzae. The format is in vivo. Conditions: individual active compound, rice seedlings Tai-Nong 67, protective spray, evaluated 6 days after inoculation.

Regarding `CC1CCN(c2c(-c3c(F)cc(F)cc3F)c(Cl)nc3ncnn23)CC1` [I, 5-chloro-7-(4-methylpiperidin-1-yl)-6-(2,4,6-trifluorophenyl)-[1,2,4]triazolo[1,5-a]pyrimidine], the “Efficacy in % of the untreated control” value runs as follows: (1 ppm in the spray liquor) 16%; (4 ppm in the spray liquor) 28%.

Turning to `COCC(=O)N(c1c(C)cccc1C)[C@H](C)C(=O)OC` [II (metalaxyl-M), methyl N-(methoxyacetyl)-N-(2,6-xylyl)-D-alaninate], the “Efficacy in % of the untreated control” value (4 ppm in the spray liquor) was 0%.

As for `CC1CCN(c2c(-c3c(F)cccc3Cl)c(Cl)nc3ncnn23)CC1` [comparative compound A], the “Efficacy in % of the untreated control” value is 0% (1 ppm in the spray liquor) and 4% (4 ppm in the spray liquor).

As for `C[C@H](Nc1c(-c2c(F)cc(F)cc2F)c(Cl)nc2ncnn12)C(F)(F)F` [comparative compound B], the “Efficacy in % of the untreated control” value amounted to 4% (1 ppm in the spray liquor) and 40% (4 ppm in the spray liquor).
